The values that follow are results of earlier work, collected in patent publication US7682606B2, “Methods of producing edible fungi containing activated folates and nutritional supplements containing activated folates” (Jarrow Formulas, Inc., priority 2003, dated 2010).

For data set [1] the following is noted: animal.
For data set [2], the system named is homocysteine. Particulars: human.

`CN1c2c(nc(N)[nH]c2=O)NCC1CNc1ccc(C(=O)N[C@@H](CCC(=O)O)C(=O)O)cc1` (some centres unmarked) [5-MTHF, 5-methyltetrahydrofolate]: in data set [1], the “Intestinal absorption after oral administration” value is “readily absorbed from the intestinal tract without degradation”.

For `CN1c2c(nc(N)[nH]c2=O)NCC1CNc1ccc(C(=O)N[C@@H](CCC(=O)O)C(=O)O)cc1` (single isomer, unassigned) [L-isomer of 5-MTHF, 5-methyltetrahydrofolate], the “Reducing homocysteine, compared with racemic D,L mixtures” value in data set [2] is “superior to racemic mixtures”.
